Values of other authors, collected in patent publication US9636301B2, “In vitro release assay for liposome encapsulated vincristine” (ARBUTUS BIOPHARMA CORPORATION, priority 2012, dated 2017).

Conditions: water

22-oxovincaleukoblastine [Vincristine sulfate]
solubility: soluble in water
